According to US5814646A, “Inhibitors of amyloid beta-protein production” (Eli Lilly and Company, priority 1995, dated 1998):

System: Aβ production in 293 751 SWE and CHO 751 SWE cells (transfected with APP-751 Swedish mutation)
Test: Aβ production inhibition activity in cells (Aβ ELISA of conditioned media, normalized for cytotoxicity by MTT)
Format: cell-based
Details: 2.5 μg/ml
Method: Two cell lines (human kidney cell line 293 and Chinese hamster ovary cell line CHO) were stably transfected with the gene for APP-751 containing the double mutation Lys651 -Met652 to Asn651 -Leu652 (APP-751 numbering) commonly called the Swedish mutation using the method described in Citron et al., (1992) Nature 360:672-674. The transfected cell lines were designated as 293 751 SWE and CHO 751 SWE, and were plated in Corning 96 well plates at 2.5×10^4 or 1×10^4 cells per well respectively in Dulbecco's minimal essential media plus 10% fetal bovine serum. Following overnight incubation at 37° C. in an incubator equilibrated with 10% carbon dioxide (CO2), the media were removed and replaced with 200 μL per well of media containing a test compound. After a two hour pretreatment period, the media were again removed and replaced with fresh media containing the test compound and the cells were incubated for an additional two hours.
Test compound stocks were prepared in DMSO such that at the final concentration used in the treatment, the concentration of DMSO did no exceed 0.5%. After treatment, plates were centrifuged in a Beckman GPR at 1200 rpm for five minutes at room temperature to pellet cellular debris from the conditioned media. From each well, 100 μL of conditioned media were transferred into an ELISA plate precoated with antibody 266 against βAP-13-28 (Seubert et al., supra.) and stored at 4° C. overnight. An ELISA assay employing labeled antibody 6C6 (against βAP-1-16) was run the next day to measure the amount of Aβ produced.
Cytotoxic effects of the test compounds were measured by a modification of the method of Hansen et al., (1989) J. Immun. Meth. 119:203-210. To the cells remaining in the tissue culture plate, was added 25 μL of a 3, (4,5-dimethylthiazol-2-yl)2,5-diphenyltetrazolium bromide (MTT) stock solution (5 mg/mL) to a final concentration of […]. Cells were incubated at 37° C. for one hour, and cellular activity was stopped by the addition of an equal volume of MTT lysis buffer (20% w/v sodium dodecylsulfate in 50% DMF, pH 4.7). Complete extraction was achieved by overnight shaking at room temperature. The difference in the OD562 nm and the OD650 nm was measured in a Molecular Devices UVmax microplate reader as an indicator of the cellular viability.
The results of the Aβ ELISA were fit to a standard curve and expressed as ng/mL Aβ peptide. In order to normalize for cytotoxicity, these Aβ results were divided by the MTT results and expressed as a percentage of the results from a drug -free control.
The test compounds were assayed for Aβ production inhibition activity in cells at […] using the test. The results presented in Table 1 are the mean and standard deviation of at least six replicate assays. IC50 means the concentration of test compound in micromoles/liter required to inhibit Aβ production by 50%.

CC1(C)CC(C(=O)Nc2ccc(Cl)c(Cl)c2)CC(C)(C)N1 [Compound 231] was tested, and the “Aβ Production Inhibition Activity, % inhibition @ 2.5 μg/ml” value was 40-51%.

Same assay, conditions: 5 μg/ml

In order of rising inhibition at 5 µg/mL:
1. CCCCCCNC(=S)N(O)Cc1ccc(OCc2ccc(CCCC)cc2)cc1 [Compound 63]  9%
2. CC(C)(C)c1ccc(Oc2cccc(C(Cc3ccccc3)N(O)C(=S)NCc3ccccc3)c2)cc1 (centres unmarked) [Compound 33]  16%
3. CCCCc1ccc(COc2ccc(CN(O)C(=S)NCc3ccccc3)cc2)cc1 [Compound 62]  17%
4. ON(Cc1ccc(OCc2ccc(Cl)c(Cl)c2)cc1)C(=S)NCc1ccccc1 [Compound 54]  25%
5. ON(Cc1ccc(OCc2ccc(F)c(F)c2)cc1)C(=S)NCc1ccccc1 [Compound 56]  28%

Same assay, conditions: 10 μg/ml, % of drug-free control, normalized to MTT

In order of rising inhibition at 10 µg/mL:
1. CCCCCCNC(=S)N(O)C(CCCCCC)c1cccc(Oc2ccc(C(C)(C)C)cc2)c1 (centres unmarked) [Compound 37]  0%
2. CCCc1c(NC(=S)Nc2ccc(C(C)(C)C)cc2)ccc(C(=O)c2ccccc2)c1O [Compound 203]  2%
3. Cc1nnc(NC(=O)Nc2ccccc2F)s1 [Compound 249]  6%
4. Cc1cccc(CNC(=S)N(O)Cc2ccc(OCc3c(Cl)cccc3Cl)cc2)c1 [Compound 65]  7%
5. CC(NC(=S)NCc1ccccc1)c1cccc(Oc2ccccc2)c1 (centres unmarked) [Compound 47]  8%
6. CCC(c1cccc(Oc2ccc(C(C)(C)C)cc2)c1)N(O)C(=S)Nc1cccc(C(F)(F)F)c1Cl (centres unmarked) [Compound 22]  10%
7. CNC(=O)N(C)c1nnc(Br)s1 [Compound 254]  11%
8. Cc1cccc(CNC(=S)N(O)Cc2ccc(-c3ccccc3)cc2)c1 [Compound 79]  15%
9. CCCCCCNC(=S)N(Cc1cccc(Oc2ccc(C(C)(C)C)cc2)c1)OC [Compound 43]  16%
10. CCCCCCNC(=S)Nc1ccccc1Oc1ccc(C(C)(C)C)cc1 [Compound 185]  21%
11. CC(c1cccc(Oc2ccc(C(C)(C)C)cc2)c1)N(O)C(=S)NCc1ccc2c(c1)OCO2 (centres unmarked) [Compound 15]  28%
12. COc1ccc(CNC(=S)N(O)C(C)c2cccc(Oc3ccc(C(C)(C)C)cc3)c2)cc1OC (centres unmarked) [Compound 11]  31%
13. Cc1ccc(CNC(=S)Nc2ccccc2Oc2ccc(C(C)(C)C)cc2)cc1C [Compound 184]  36%
14. CC(C)(C)c1cccc(Oc2ccc(NC(=S)Nc3ccccc3C(F)(F)F)cc2)c1 [Compound 189]  37%
15. COc1ccccc1CNC(=S)Nc1ccc(Oc2ccc(C(C)(C)C)cc2)cc1 [Compound 109]  37%
16. CN(Cc1cccc(Oc2ccc(C(C)(C)C)cc2)c1)C(=S)NCc1ccc(Cl)c(Cl)c1 [Compound 44]  40%
17. CCCc1c(COc2ccc(CN(O)C(=S)NCc3ccccc3)cc2)ccc(C(C)=O)c1O [Compound 67]  42%
18. CC(C)(C)c1ccc(Oc2ccccc2NC(=S)NCc2ccccc2)cc1 [Compound 181]  52%
19. Cc1ccc(CNC(=S)N(O)C(C)c2cccc(Oc3ccc(C(C)(C)C)cc3)c2)cc1C (centres unmarked) [Compound 9]  62%

In order of rising “Aβ Production Inhibition Activity, % inhibition at 10 μg/ml” value:
1. O=C(Nc1ccc(Cl)c(Cl)c1)N1CCCCC1 [Compound 229]  8%
2. CCN1CCCC(C(=O)Nc2ccc(Cl)c(Cl)c2)C1 (centres unmarked) [Compound 230]  28%
3. Cc1cc(C(=O)Nc2ccc(Cl)c(Cl)c2)no1 [Compound 242]  29%

Same assay, conditions: 2 h pretreatment + 2 h incubation

In order of rising IC50:
1. CCCc1c(CSC(=S)NCc2ccccc2)ccc(C(C)=O)c1O [Compound 199]  2 µM
2. CCC(c1cccc(Oc2ccc(C(C)(C)C)cc2)c1)N(O)C(=S)NCc1ccccc1 (centres unmarked) [Compound 20]  3.6 µM
3. O=C(Nc1ccc(Cl)c(Cl)c1)Nc1nnc(C(F)(F)F)s1 [Compound 236, 1-(5-trifluoromethyl-1,3,4-thiadiazol-2-yl)-3-(3,4-dichlorophenyl)urea]  4.2 µM
4. CC(C)(C)c1cccc(Oc2ccc(NC(=S)Nc3cccc(C(F)(F)F)c3)cc2)c1 [Compound 176]  4.6 µM
5. FC(F)(F)c1cccc(NC(=S)Nc2ccc(Cl)c(Cl)c2)c1 [Compound 147]  4.7 µM
6. Cc1nnc(NC(=O)Nc2ccc(Cl)c(Cl)c2)s1 [Compound 234, 1-(5-methyl-1,3,4-thiadiazol-2-yl)-3-(3,4-dichlorophenyl)urea]  5 µM
7. CCCCCCNC(=S)N(O)Cc1ccc(Sc2ccc(C(C)(C)C)cc2)cc1 [Compound 89]  5.3 µM
8. COc1c(C(C)(C)C)cc(COc2ccc(CN(O)C(=S)NCc3ccccc3)cc2)cc1C(C)(C)C [Compound 73]  5.9 µM
9. CC(C)(C)c1ccc(Sc2cccc(CN(O)C(=S)NCc3ccccc3)c2)cc1 [Compound 86]  5.9 µM
10. O=C(Nc1ccc(Sc2ccc(Cl)c(Cl)c2)cc1)Nc1ccc(Cl)c(Cl)c1 [Compound 145]  6.2 µM
11. CC(C)(C)c1ccc(Oc2ccc(NC(=S)NCc3cccc(C(F)(F)F)c3)cc2)cc1 [Compound 179]  6.5 µM
12. CC(C)(C)c1ccc(COc2cccc(CN(O)C(=S)NCc3ccccc3)c2)cc1 [Compound 49]  6.7 µM
13. CC(C)(C)c1ccc(Oc2ccc(NC(=S)NCc3cccc(Br)c3)cc2)cc1 [Compound 107]  7.2 µM
14. CCCC(c1cccc(Oc2ccc(C(C)(C)C)cc2)c1)N(O)C(=S)NCc1ccccc1 (centres unmarked) [Compound 29]  7.5 µM
15. CC(C)(C)c1ccc(Oc2ccc(NC(=S)NCc3cccc(F)c3)cc2)cc1 [Compound 112]  7.6 µM
16. CC(C)(C)c1ccc(Oc2ccc(NC(=S)NCc3ccc(F)cc3C(F)(F)F)cc2)cc1 [Compound 132]  8 µM
17. CSc1ccc(NC(=O)Nc2ccc(Cl)c(Cl)c2)cc1 [Compound 154]  8.6 µM
18. CCCCCCNC(=S)N(O)C(CC)c1cccc(Oc2ccc(C(C)(C)C)cc2)c1 (centres unmarked) [Compound 24]  8.8 µM
19. CCCC(c1cccc(Oc2ccc(C(C)(C)C)cc2)c1)N(O)C(=S)NCc1cccc(Cl)c1 (centres unmarked) [Compound 30]  9.1 µM
20. Cc1nnc(NC(=O)Nc2ccc(F)c(Cl)c2)s1 [Compound 250, 1-(5-methyl-1,3,4-thiadiazol-2-yl)-3-(4-fluoro-3-chlorophenyl)urea]  9.8 µM
21. CCC(C)(C)c1ccc(OCc2ccc(CN(O)C(=S)NCc3ccccc3)cc2)cc1 [Compound 97]  10 µM
22. O=C(Nc1ccc(Cl)c(Cl)c1)Nc1nc2ccccc2s1 [Compound 137]  10.3 µM
23. Cc1ccccc1CNC(=S)N(O)C(C)c1cccc(Oc2ccc(C(C)(C)C)cc2)c1 (centres unmarked) [Compound 5]  10.3 µM
24. Cc1cccc(CNC(=S)N(O)C(C)c2cccc(Oc3ccc(C(C)(C)C)cc3)c2)c1 (centres unmarked) [Compound 6]  11.1 µM
25. CC(C)(C)c1ccc(Oc2ccc(NC(=S)NCC3CCCNC3)cc2)cc1 (centres unmarked) [Compound 127]  11.7 µM
26. CC(C)(C)c1ccc(-c2ccc(CN(O)C(=S)Nc3ccc(Cl)c(C(F)(F)F)c3)cc2)cc1 [Compound 83]  12.4 µM
27. CC(C)(C)c1ccc(SCc2ccc(CN(O)C(=S)NCc3ccccc3)cc2)cc1 [Compound 94]  13.1 µM
28. CSc1ccc(NC(=O)Nc2ccc(Cl)c(Cl)c2)cc1 [Compound 149]  13.8 µM
29. CC(C)(C)c1ccccc1Oc1ccc(NC(=S)Nc2ccccc2C(F)(F)F)cc1 [Compound 190]  13.8 µM
30. CC(C)(C)c1ccc(C(=O)Nc2cccc(CN(O)C(=S)NCc3ccccc3)c2)cc1 [Compound 84]  15 µM
31. COC(=O)c1sc2ccccc2c1C(=O)Nc1ccc(Cl)c(Cl)c1 [Compound 233]  15.2 µM
32. CC(C)(C)c1ccc(Oc2ccc(NC(=S)NC3CCCCC3)cc2)cc1 [Compound 119]  15.2 µM
33. CC(C)(C)c1ccc([S+]([O-])c2cccc(CN(O)C(=S)NCc3ccccc3)c2)cc1 (centres unmarked) [Compound 91]  17.1 µM
34. CCCc1c(NC(=S)Nc2cccc(C(F)(F)F)c2)ccc(C(=O)c2ccccc2)c1O [Compound 201]  20 µM
35. COc1cccc(CNC(=S)Nc2ccc(Oc3ccc(C(C)(C)C)cc3)cc2)c1 [Compound 110]  21.2 µM
36. S=C(NCc1ccccc1)Nc1ccc(Cl)c(Cl)c1 [Compound 146]  21.8 µM
37. CCCCCCNC(=S)N(O)Cc1ccccc1Oc1ccc(C(C)(C)C)cc1 [Compound 182]  34 µM
